“Also recorded” adds a separate entry of the source.
How the values were obtained:
[1] = Hygroscopicity study by dynamic vapor sorption (DVS); assay type: physicochemical; details: 25° C. and 80% RH
Description: Dynamic Vapor Sorption (DVS) Method Used in the Present Disclosure
Instrument model: SMS DVS Advantage dynamic vapor sorption apparatus
Test condition: The sample (10 to 15 mg) was placed in a DVS sample pan for testing.
The detailed DVS parameters were as follows:
Equilibration: dm/dt=0.01%/min (The shortest time: 10 min, and the longest time: 180 min)
Drying: Dried for 120 min at 0% RH
RH (%) test gradient: 10%
Range of RH (%) test gradient: 0%-90%-0%
The classification of hygroscopicity evaluation was as follows:
SMS DVS Advantage dynamic vapor sorption apparatus

[2] = Solid stability test (high temperature, high humidity, strong light; XRPD); assay type: physicochemical
Description: For the samples placed under high temperature and high humidity conditions, the vial opening was sealed with aluminum foil paper and small holes were punched in the aluminum foil paper to ensure that the sample can fully contact the ambient air. For the samples placed under strong light condition, the vial opening was sealed with aluminum foil paper. The samples placed under various conditions were sampled and tested for XRPD on the 5th day and 10th day, and the test results were compared with the initial test results on day 0.

[3] = molecular target: Glutathione-S-transferase-labeled FXR human protein (Homo sapiens (Human), UniProt Q96RI1); test: FXR biochemical assay (alphascreen); details: FXR with biotin-labeled steroid receptor coactivator, read-out: EC50 (nM) Mean ± SEM, activation effect on FXR
Description: 1. […] The reference compound was prepared as a 400 μM DMSO solution, and then diluted 1.5-fold to 10 concentration points. […] 2. […] 3. […] 4. […] 5. […] 6.

[4] = system: NASH model (high-fat diet feeding and CCl4 induction); test: In vivo efficacy assay, high-fat diet and CCl4 induced NASH model; design: species or system mice
Description: The model building in this assay included two steps: high-fat diet feeding and CCl4 induction. Firstly, the mice were fed with high-fat diet to induce non-alcoholic fatty liver. The mice with a body weight of >35 g were selected and continued to be fed with high-fat diet while being administered with 25% CCl4 ([…]) by intraperitoneal injection twice a week for four weeks.
The day when the administration of CCl4 was started was set as day 0, and the time when the administration of CCl4 was started was set as hour 0. On the day when the administration of CCl4 was started, the administration was started by intragastric gavage. […] The time point of the injection of CCl4 should be 4 hours or longer apart from the time point of the first administration of the day.
The healthy control group consisted of 6 normal mice, which were fed with ordinary diet during the assay, without CCl4 injection.
48 obese mice were used in the model group and the administration group. Each group consisted of 8 mice. After grouping, the mice were injected intraperitoneally with CCl4 and administered with different doses of drugs or vehicle, respectively.
The analysis software Graphpad Prism6 was used for comparation between two groups.
For the analysis of hepatic pathology in animal models of non-alcoholic steatohepatitis, the therapeutic effect of the compound on NAFLD was comprehensively evaluated in three aspects of hepatocyte steatosis, hepatocyte ballooming degeneration, and inflammation accumulation in hepatic lobule with the reference of clinicopathological diagnosis and evaluation criteria for NAFLD, and using NAFLD activity score (NAS).
All slices stained with Sirius red were wholly scanned by a Digital pathoscope 4S slide scanner. 2 fields of view were randomly selected under a 5× field of view, and 2 fields of view covered 85% of the liver tissue area. Image pro-plus 6.0 software was then used for quantitative analysis, and fibrosis deposition area in the slice was calculated.

[5] = 15 mg/kg, intragastric gavage once a day, 28 days, Mean±SEM
[6] = 7.5 mg/kg, intragastric gavage once a day, 28 days, Mean±SEM

Chain of Glutathione-S-transferase-labeled FXR human protein (Q96RI1 whole entry): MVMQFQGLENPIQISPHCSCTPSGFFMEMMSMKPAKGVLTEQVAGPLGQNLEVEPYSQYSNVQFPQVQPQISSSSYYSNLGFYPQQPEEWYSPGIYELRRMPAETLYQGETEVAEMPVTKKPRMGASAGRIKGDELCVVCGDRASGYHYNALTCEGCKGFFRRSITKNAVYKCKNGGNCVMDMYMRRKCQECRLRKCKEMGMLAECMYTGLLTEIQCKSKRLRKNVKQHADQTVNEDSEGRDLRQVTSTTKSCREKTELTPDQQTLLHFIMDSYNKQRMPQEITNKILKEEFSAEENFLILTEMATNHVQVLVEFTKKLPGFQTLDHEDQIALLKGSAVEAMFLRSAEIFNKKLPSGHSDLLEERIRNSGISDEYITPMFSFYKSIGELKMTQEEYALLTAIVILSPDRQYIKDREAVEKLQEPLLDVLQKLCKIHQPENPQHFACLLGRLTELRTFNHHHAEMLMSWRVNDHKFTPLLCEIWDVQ

Compound	Classification of hygroscopicity [1]	ΔW, weight increase by moisture absorption [1]	Crystal form (XRPD) ([2]; Day 0, initial)	Crystal form (XRPD) ([2]; High humidity (room temperature/relative humidity at 92.5%, open), Day 5)	Crystal form (XRPD) ([2]; High humidity (room temperature/relative humidity at 92.5%, open), Day 10)	Crystal form (XRPD) ([2]; High temperature (60° C., open), Day 5)	Crystal form (XRPD) ([2]; High temperature (60° C., open), Day 10)	Crystal form (XRPD) ([2]; Strong light (5000 lx, sealed), Day 5)	Crystal form (XRPD) ([2]; Strong light (5000 lx, sealed), Day 10)	Solid stability (in words) ([2]; high temperature, high humidity and strong light)	EC50 [3]	Hepatocyte ballooming degeneration score [4, 5]	NAS score [4, 5]	NAS score ([4]; 15 mg/kg, intragastric gavage once a day, 28 days, Mean±SEM, listed as PX104)	Hepatic fibrosis (fibrosis deposition area, Sirius red) [4, 6]	Hepatocyte ballooming degeneration score [4, 6]	Hepatic steatosis score [4, 5]	Hepatocyte ballooming degeneration score ([4]; 45 mg/kg, intragastric gavage once a day, 28 days, Mean±SEM, one mouse 0.17 determined as abnormal value)	Hepatic function and hepatic damage (in words) ([4]; conclusion of the assay)
O=C(O)c1cnc(N2C(=O)CCc3cc(OCc4c(-c5c(Cl)cccc5Cl)noc4C4CC4)ccc32)c(Cl)c1	slightly hygroscopic	0.5834%	Crystal form A	Crystal form A	Crystal form A	Crystal form A	Crystal form A	Crystal form A	Crystal form A	good stability; also recorded: stable	–	–	–	–	–	–	–	–	–
O=C(O)c1ccnc(N2CC(O)(c3ccc(OCc4c(-c5c(Cl)cccc5Cl)noc4C4CC4)cc3Cl)C2)c1 [PX-104, reference compound]	–	–	–	–	–	–	–	–	–	–	65.2 nM	0.0	1.479	significantly reduce the NAS score	–	–	–	–	–
O=C(O)c1cnc(N2C(=O)CCc3cc(OCc4c(-c5c(Cl)cccc5Cl)noc4C4CC4)ccc32)c(Cl)c1 [compound of formula (I)]	–	–	–	–	–	–	–	–	–	–	–	0.0	–	–	2.580	0.0	0.854	0.021^@ ±	significantly improve hepatic function and reduce hepatic damage
